Results: patent US11739074B2, “Ras inhibitors” (Revolution Medicines, Inc., priority 2019, dated 2023)
Like-named read-outs stand apart in the source and are kept apart here.

What was measured:
[1] = ester bond, EDCI/HOBt/DIPEA, 16.0 h
[2] = ester bond, 18-membered ring, EDCI/HOBt/DIEA, 25.0 °C
KRAS G12V = KRAS G12V (Homo sapiens, UniProt P01116+P62937, G12V); test: Ras-Raf disruption/FRET/MOA assay, KRAS G12V; type: biochemical; details: disruption of BRAF RBD binding, with Cyclophilin A; read-out: KRAS G12V FRET IC50
Summary of the method: (§1)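 His6-K-Ras-GMPPNP (12.5 nM) was incubated with GST-BRAF RBD (50 nM), tagless cyclophilin A (25 µM) and compound (10-point 3-fold series from 30 µM) in HEPES pH 7.3 buffer for 3 h at 25 °C. Anti-His Eu/anti-GST APC were then added for 1.5 h; disruption was read as a drop in TR-FRET ratio versus DMSO.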

KRAS G12D = KRAS G12D (Homo sapiens, UniProt P01116+P62937, G12D); test: Ras-Raf disruption/FRET/MOA assay, KRAS G12D; type: biochemical; details: disruption of BRAF RBD binding, with Cyclophilin A; read-out: KRAS G12D FRET IC50
Summary of the method: as §1

NRAS Q61R = biological target: T1, NRAS Q61R (Homo sapiens, UniProt P01111+P62937, Q61R); test: Ras-Raf disruption/FRET/MOA assay, NRAS Q61R; type: biochemical; details: NRAS Q61R; read-out: NRAS Q61R FRET data IC50
T1 construct: His6

NRAS Q61K = biological target: T2, NRAS Q61K (Homo sapiens, UniProt P01111+P62937, Q61K); test: Ras-Raf disruption/FRET/MOA assay, NRAS Q61K; type: biochemical; details: NRAS Q61K; read-out: NRAS Q61K FRET data IC50
T2 construct: His6

NRAS G12C = biological target: T3, NRAS G12C (Homo sapiens, UniProt P01111+P62937, G12C); test: Ras-Raf disruption/FRET/MOA assay, NRAS G12C; type: biochemical; details: NRAS G12C; read-out: NRAS G12C FRET data IC50
T3 construct: His6
Summary of the method: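 Disruption of Ras:RAF binding was read as a drop in TR-FRET ratio versus DMSO controls. The buffer was 25 mM HEPES pH 7.3, 0.002% Tween20, 0.1% BSA, 100 mM NaCl and 5 mM MgCl2. Compounds were tested as a 10-point 3-fold dilution series from 30 μM. Detection used 10 nM anti-His Eu-W1024 and 50 nM anti-GST allophycocyanin.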

NRAS WT = biological target: T4, NRAS WT (Homo sapiens, UniProt P01111+P62937); test: Ras-Raf disruption/FRET/MOA assay, NRAS WT; type: biochemical; details: NRAS WT; read-out: NRAS WT FRET data IC50
T4 construct: His6

NCI-H358 (K-Ras G12C) = test: CellTiter-Glo cell viability assay, H358; type: cell-based; details: Homo sapiens, NCI-H358, 120 h, NCI-H358, K-Ras G12C, 5-day treatment; read-out: H358 Cell Viability IC50
Summary of the method: (§2)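 Test compounds were dispensed directly onto seeded cells, and on day 5 plates were brought to room temperature for about 30 minutes before CellTiter-Glo luminescence was read. Signals were expressed as percent of the mean DMSO control and fitted with a four-parameter logistic model.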

KRAS G13D = KRAS G13D (Homo sapiens, UniProt P01116+P62937, G13D); test: Ras-Raf disruption/FRET/MOA assay, KRAS G13D; type: biochemical; details: disruption of BRAF RBD binding, with Cyclophilin A; read-out: KRAS G13D FRET IC50
Summary of the method: as §1

KRAS G12C = KRAS G12C (Homo sapiens, UniProt P01116+P62937, G12C); test: Ras-Raf disruption/FRET/MOA assay, KRAS G12C; type: biochemical; details: disruption of BRAF RBD binding, with Cyclophilin A; read-out: KRAS G12C FRET IC50
Summary of the method: as §1

AsPC-1 (K-Ras G12D) [3] = test: Potency assay: pERK in AsPC-1 cells; type: cell-based; details: Homo sapiens, ASPC1; AsPC-1 cells, K-Ras G12D; read-out: pERK EC50 (AsPC-1 KRAS G12D)
KRAS WT = KRAS WT (Homo sapiens, UniProt P01116+P62937); test: Ras-Raf disruption/FRET/MOA assay, KRAS WT; type: biochemical; details: disruption of BRAF RBD binding, with Cyclophilin A; read-out: KRAS WT FRET IC50
Summary of the method: as §1

KRAS G13C = KRAS G13C (Homo sapiens, UniProt P01116+P62937, G13C); test: Ras-Raf disruption/FRET/MOA assay, KRAS G13C; type: biochemical; details: disruption of BRAF RBD binding, with Cyclophilin A; read-out: KRAS G13C FRET IC50
Summary of the method: as §1

KRAS G12S = KRAS G12S (Homo sapiens, UniProt P01116+P62937, G12S); test: Ras-Raf disruption/FRET/MOA assay, KRAS G12S; type: biochemical; details: disruption of BRAF RBD binding, with Cyclophilin A; read-out: KRAS G12S FRET IC50
Summary of the method: as §1

AsPC-1 (K-Ras G12D) [4] = test: CellTiter-Glo cell viability assay, AsPC-1; type: cell-based; details: Homo sapiens, ASPC1, 120 h, AsPC-1, K-Ras G12D, 5-day treatment; read-out: AsPC-1 Cell Viability IC50
Summary of the method: as §2

KRAS Q61H = KRAS Q61H (Homo sapiens, UniProt P01116+P62937, Q61H); test: Ras-Raf disruption/FRET/MOA assay, KRAS Q61H; type: biochemical; details: KRAS Q61H; read-out: KRAS Q61H FRET data IC50
Summary of the method: as §1

Sequence of KRAS G13D (P01116 1-169 isoform P01116-2 G13D limits assumed): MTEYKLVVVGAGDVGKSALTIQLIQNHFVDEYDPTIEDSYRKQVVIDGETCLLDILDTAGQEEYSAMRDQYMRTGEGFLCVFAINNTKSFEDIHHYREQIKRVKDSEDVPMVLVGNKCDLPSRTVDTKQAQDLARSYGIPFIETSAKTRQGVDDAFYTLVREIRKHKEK
Sequence of KRAS G13D (P62937 whole entry): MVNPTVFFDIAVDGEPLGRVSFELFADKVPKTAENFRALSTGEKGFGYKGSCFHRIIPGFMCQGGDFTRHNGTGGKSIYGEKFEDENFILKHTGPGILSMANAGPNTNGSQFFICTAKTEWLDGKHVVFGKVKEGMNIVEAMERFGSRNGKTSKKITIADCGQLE
T2 sequence (P01111 whole entry Q61K): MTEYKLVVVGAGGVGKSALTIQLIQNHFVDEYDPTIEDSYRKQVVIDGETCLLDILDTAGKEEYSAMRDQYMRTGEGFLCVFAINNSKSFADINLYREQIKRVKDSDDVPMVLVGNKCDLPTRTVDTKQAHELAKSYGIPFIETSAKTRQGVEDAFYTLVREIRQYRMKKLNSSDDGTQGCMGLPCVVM
T2 sequence (P62937 whole entry): as the sequence (P62937 whole entry) above
Sequence of KRAS G13C (P01116 1-169 isoform P01116-2 G13C limits assumed): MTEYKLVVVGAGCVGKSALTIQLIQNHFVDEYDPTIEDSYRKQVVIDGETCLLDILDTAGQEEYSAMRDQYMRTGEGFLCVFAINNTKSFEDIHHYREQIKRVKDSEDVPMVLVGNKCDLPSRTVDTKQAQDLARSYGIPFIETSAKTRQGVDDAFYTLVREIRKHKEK
Sequence of KRAS G13C (P62937 whole entry): as the sequence (P62937 whole entry) above
Sequence of KRAS WT (P01116 1-169 isoform P01116-2 limits assumed): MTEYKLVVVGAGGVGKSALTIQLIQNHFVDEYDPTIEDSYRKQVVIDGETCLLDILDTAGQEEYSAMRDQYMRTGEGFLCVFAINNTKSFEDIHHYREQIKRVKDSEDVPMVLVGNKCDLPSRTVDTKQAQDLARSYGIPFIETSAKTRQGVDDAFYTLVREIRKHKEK
Sequence of KRAS WT (P62937 whole entry): as the sequence (P62937 whole entry) above
T1 sequence (P01111 whole entry Q61R): as the sequence (P01111 whole entry Q61K) above, with K61R counted along it
T1 sequence (P62937 whole entry): as the sequence (P62937 whole entry) above
T3 sequence (P01111 whole entry G12C): as the sequence (P01111 whole entry Q61K) above, with G12C, K61Q counted along it
T3 sequence (P62937 whole entry): as the sequence (P62937 whole entry) above
T4 sequence (P01111 whole entry): as the sequence (P01111 whole entry Q61K) above, with K61Q counted along it
T4 sequence (P62937 whole entry): as the sequence (P62937 whole entry) above
Sequence of KRAS G12V (P01116 1-169 isoform P01116-2 G12V limits assumed): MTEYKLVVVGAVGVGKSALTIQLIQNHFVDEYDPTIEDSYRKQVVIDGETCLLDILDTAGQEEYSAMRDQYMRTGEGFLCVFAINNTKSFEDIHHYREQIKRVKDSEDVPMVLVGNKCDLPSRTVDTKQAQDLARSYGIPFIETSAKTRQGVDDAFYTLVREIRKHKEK
Sequence of KRAS G12V (P62937 whole entry): as the sequence (P62937 whole entry) above
Sequence of KRAS Q61H (P01116 1-169 isoform P01116-2 Q61H limits assumed): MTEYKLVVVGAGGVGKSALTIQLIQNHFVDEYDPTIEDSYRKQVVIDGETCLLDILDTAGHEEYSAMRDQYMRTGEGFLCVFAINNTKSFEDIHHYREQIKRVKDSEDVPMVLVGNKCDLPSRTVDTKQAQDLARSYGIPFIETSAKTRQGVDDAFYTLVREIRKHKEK
Sequence of KRAS Q61H (P62937 whole entry): as the sequence (P62937 whole entry) above
Sequence of KRAS G12S (P01116 1-169 isoform P01116-2 G12S limits assumed): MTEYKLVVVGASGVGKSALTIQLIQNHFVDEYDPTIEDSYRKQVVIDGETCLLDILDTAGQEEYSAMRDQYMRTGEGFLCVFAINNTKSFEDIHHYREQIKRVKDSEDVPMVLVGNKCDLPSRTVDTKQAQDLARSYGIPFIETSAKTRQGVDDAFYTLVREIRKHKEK
Sequence of KRAS G12S (P62937 whole entry): as the sequence (P62937 whole entry) above
Sequence of KRAS G12D (P01116 1-169 isoform P01116-2 G12D limits assumed): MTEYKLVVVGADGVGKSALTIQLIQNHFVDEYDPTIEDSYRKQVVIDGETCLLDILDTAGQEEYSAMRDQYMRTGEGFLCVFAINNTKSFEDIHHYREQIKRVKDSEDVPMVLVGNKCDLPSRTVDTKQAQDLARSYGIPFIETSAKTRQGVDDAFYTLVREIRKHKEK
Sequence of KRAS G12D (P62937 whole entry): as the sequence (P62937 whole entry) above
Sequence of KRAS G12C (P01116 1-169 isoform P01116-2 G12C limits assumed): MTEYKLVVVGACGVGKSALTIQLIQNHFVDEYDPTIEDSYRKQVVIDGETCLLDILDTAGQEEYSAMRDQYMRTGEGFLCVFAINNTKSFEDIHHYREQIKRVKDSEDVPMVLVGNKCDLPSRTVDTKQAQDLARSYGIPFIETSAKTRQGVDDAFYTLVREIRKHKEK
Sequence of KRAS G12C (P62937 whole entry): as the sequence (P62937 whole entry) above

| Structure (SMILES) | IC50 (KRAS G12V) | IC50 (KRAS G12D) | IC50 (NRAS Q61R) | IC50 (NRAS Q61K) | IC50 (NRAS G12C) | IC50 (NRAS WT) | IC50 (NCI-H358 (K-Ras G12C)) | IC50 (KRAS G13D) | IC50 (KRAS G12C) | EC50 (AsPC-1 (K-Ras G12D) [3]) | IC50 (KRAS WT) | IC50 (KRAS G13C) | IC50 (KRAS G12S) | IC50 (AsPC-1 (K-Ras G12D) [4]) | IC50 (KRAS Q61H) | other results |
| --- | --- | --- | --- | --- | --- | --- | --- | --- | --- | --- | --- | --- | --- | --- | --- | --- |
| CCn1c(-c2cccnc2[C@H](C)OC)c2c3cc(ccc31)-c1csc(n1)C[C@H](NC(=O)OC(C)(C)C)C(=O)N1CCC[C@H](N1)C(=O)OCC(C)(C)C2 | – | – | – | – | – | – | – | – | – | – | – | – | – | – | – | ring closure, yield of all isomers ([1]; from CCn1c(-c2cccnc2[C@H](C)OC)c(CC(C)(C)CO)c2cc(-c3csc(C[C@H](NC(=O)OC(C)(C)C)C(=O)N4CCC[C@@H](C(=O)O)N4)n3)ccc21, DCM, 12.65 mM, 25.0 °C): 81.1% |
| CCn1c(-c2cc(N3CCN(C(=O)OCc4ccccc4)CC3)cnc2[C@H](C)OC)c2c3cc(ccc31)-c1csc(n1)C[C@H](NC(=O)OC(C)(C)C)C(=O)N1CCC[C@H](N1)C(=O)OCC(C)(C)C2 | – | – | – | – | – | – | – | – | – | – | – | – | – | – | – | ring closure, isolated yield ([2]; from CCn1c(-c2cc(N3CCN(C(=O)OCc4ccccc4)CC3)cnc2[C@H](C)OC)c(CC(C)(C)CO)c2cc(-c3csc(C[C@H](NC(=O)OC(C)(C)C)C(=O)N4CCC[C@@H](C(=O)O)N4)n3)ccc21, MeCN, 10.3 mM): 54.9%; ring closure, yield of all isomers ([1]; from CCn1c(-c2cc(N3CCN(C(=O)OCc4ccccc4)CC3)cnc2[C@H](C)OC)c(CC(C)(C)CO)c2cc(-c3csc(C[C@H](NC(=O)OC(C)(C)C)C(=O)N4CCC[C@@H](C(=O)O)N4)n3)ccc21, MeCN, 10.34 mM, 25.0 °C): 54.9% |
| CC1(C)COC(=O)[C@@H]2CCCN(N2)C(=O)[C@@H](NC(=O)OC(C)(C)C)Cc2cccc(c2)-c2ccc3[nH]c(I)c(c3c2)C1 | – | – | – | – | – | – | – | – | – | – | – | – | – | – | – | ring closure, yield of all isomers ([1]; from CC(C)(CO)Cc1c(I)[nH]c2ccc(-c3cccc(C[C@H](NC(=O)OC(C)(C)C)C(=O)N4CCC[C@@H](C(=O)O)N4)c3)cc12, DCM, 12.8 mM, 0.0 °C): 79.8% |
| CCn1c(-c2cccnc2[C@H](C)OC)c2c3cc(ccc31)-c1cc(cc(C(F)F)c1)C[C@H](NC(=O)OC(C)(C)C)C(=O)N1CCC[C@H](N1)C(=O)OCC(C)(C)C2 | – | – | – | – | – | – | – | – | – | – | – | – | – | – | – | ring closure, isolated yield ([2]; from CCn1c(-c2cccnc2[C@H](C)OC)c(CC(C)(C)CO)c2cc(-c3cc(C[C@H](NC(=O)OC(C)(C)C)C(=O)N4CCC[C@@H](C(=O)O)N4)cc(C(F)F)c3)ccc21, DCM, 21.0 mM): 71.6%; ring closure, yield of all isomers ([1]; from CCn1c(-c2cccnc2[C@H](C)OC)c(CC(C)(C)CO)c2cc(-c3cc(C[C@H](NC(=O)OC(C)(C)C)C(=O)N4CCC[C@@H](C(=O)O)N4)cc(C(F)F)c3)ccc21, DCM, 21.05 mM, 25.0 °C): 71.6% |
| CCn1c(-c2cccnc2[C@H](C)OC)c2c3cc(ccc31)-c1cc(cc(O[Si](C(C)C)(C(C)C)C(C)C)c1)C[C@H](NC(=O)OC(C)(C)C)C(=O)N1CCC[C@H](N1)C(=O)OCC(C)(C)C2 | – | – | – | – | – | – | – | – | – | – | – | – | – | – | – | ring closure, isolated yield ([2]; from CCn1c(-c2cccnc2[C@H](C)OC)c(CC(C)(C)CO)c2cc(-c3cc(C[C@H](NC(=O)OC(C)(C)C)C(=O)N4CCC[C@@H](C(=O)O)N4)cc(O[Si](C(C)C)(C(C)C)C(C)C)c3)ccc21, DCM, 15.3 mM): 42%; ring closure, yield of all isomers ([1]; from CCn1c(-c2cccnc2[C@H](C)OC)c(CC(C)(C)CO)c2cc(-c3cc(C[C@H](NC(=O)OC(C)(C)C)C(=O)N4CCC[C@@H](C(=O)O)N4)cc(O[Si](C(C)C)(C(C)C)C(C)C)c3)ccc21, DCM, 15.3 mM, 25.0 °C): 42% |
| CCn1c(-c2cccnc2[C@H](C)OC)c2c3cc(ccc31)-c1cc(CF)cc(c1)C[C@H](NC(=O)[C@H](C1CCCC1)N1CC[C@]3(CCN(C(=O)[C@@H]4N[C@@H]4C4CC4)C3)C1=O)C(=O)N1CCC[C@H](N1)C(=O)OCC(C)(C)C2 [Compound 321] | 100 to 1000 nM | 100 to 1000 nM | 1000 to 10000 nM | 1000 to 10000 nM | 100 to 1000 nM | 100 to 1000 nM | 100 to 1000 nM | 1000 to 10000 nM | 100 to 1000 nM | < 5000 nM | 100 to 1000 nM | 100 to 1000 nM | 100 to 1000 nM | 10 to 100 nM | 100 to 1000 nM | – |
| CCn1c(-c2cccnc2[C@H](C)OC)c2c3cc(ccc31)-c1cc(O)cc(c1)C[C@H](NC(=O)[C@H](C(C)C)N1CCCC3(CN(C(=O)[C@H]4CN4)C3)C1=O)C(=O)N1CCC[C@H](N1)C(=O)OCC(C)(C)C2 [Compound 307] | 10 to 100 nM | 100 to 1000 nM | 100 to 1000 nM | 100 to 1000 nM | < 10 nM | 10 to 100 nM | < 10 nM | 10 to 100 nM | < 10 nM | < 5000 nM | 10 to 100 nM | 10 to 100 nM | 10 to 100 nM | 100 to 1000 nM | 10 to 100 nM | – |
| CCn1c(-c2cccnc2[C@H](C)OC)c2c3cc(ccc31)-c1csc(n1)C[C@H](NC(=O)[C@H](C(C)C)N(C)C(=O)N1CCC[C@@H](N(C)C(=O)[C@H]3CN3)C1)C(=O)N1CCC[C@H](N1)C(=O)OCC(C)(C)C2 (atropisomer, axis not shown) [Compound 289] | 100 to 1000 nM | 100 to 1000 nM | 10 to 100 nM | 10 to 100 nM | 10 to 100 nM | 10 to 100 nM | 10 to 100 nM | 100 to 1000 nM | 10 to 100 nM | < 5000 nM | 10 to 100 nM | 100 to 1000 nM | 10 to 100 nM | 100 to 1000 nM | 10 to 100 nM | – |
| CC(C)[Si](Oc1cc2cc(c1)-c1ccc3[nH]c(I)c(c3c1)CC(C)(C)COC(=O)[C@@H]1CCCN(N1)C(=O)[C@@H](NC(=O)OC(C)(C)C)C2)(C(C)C)C(C)C | – | – | – | – | – | – | – | – | – | – | – | – | – | – | – | ring closure, yield of all isomers ([1]; from CC(C)[Si](Oc1cc(C[C@H](NC(=O)OC(C)(C)C)C(=O)N2CCC[C@@H](C(=O)O)N2)cc(-c2ccc3[nH]c(I)c(CC(C)(C)CO)c3c2)c1)(C(C)C)C(C)C, DCM, 22.8 mM, 25.0 °C): 50% |
